Source: publication PMC11850127 (The Journal of Biological Chemistry, 2025)
“Also recorded” adds a separate entry of the source. Starred links: 1 amine or outer side, 2 acyl side, 3 side chain; linkers in the order of their positions; H or OH if unused. Positions of bridges follow the written chain, without caps; N, C: chain ends. Non-standard residues stand in square brackets, D forms with d. Residues, ends and D or L forms follow the SMILES beside them. Chains are numbered I, II in the order given. Actinocin(9to1) = Cc1c2oc3c(C)ccc(C(=O)[*:1])c3nc-2c(C(=O)[*:2])c(N)c1=O; NMeV = CN[C@H](C(=O)O)C(C)C; Sar = CNCC(=O)O

System: [V13′T]α10 nAChR
Assay type: cell-based, human (expressed in Xenopus laevis oocytes)

`Cc1c2oc3c(C)ccc(C(=O)N[C@@H]4C(=O)N[C@H](C(C)C)C(=O)N5CCC[C@H]5C(=O)N(C)CC(=O)N(C)[C@@H](C(C)C)C(=O)O[C@@H]4C)c3nc-2c(C(=O)N[C@@H]2C(=O)N[C@H](C(C)C)C(=O)N3CCC[C@H]3C(=O)N(C)CC(=O)N(C)[C@@H](C(C)C)C(=O)O[C@@H]2C)c(N)c1=O` [actinomycin D] (I: T[dV]P[Sar][NMeV] / II: T[dV]P[Sar][NMeV]; ester I:1-I:C, II:1-II:C; linker I:N-II:N via Actinocin(9to1)) was tested. Which “effect of actinomycin D on ACh-induced currents” value did it give?
Its value is “did not differ in the magnitude of their ACh-induced currents from untreated controls; also recorded: not significantly different”.

What about the “mean ACh-induced response with actinomycin D” value of the same compound?
Its value is −233 ± 219 nA.
